Assays:
[1] = test system: Aβ42 production in N2A-APPswe cells; assay: Aβ42 in conditioned medium of N2A-APPswe cells by ELISA, 18 h treatment; format: cell-based; conditions: for decrease in Aβ42 / Aβ42-lowering effect (in words): N2A-APPswe cells; for decrease in Aβ42: 18 h; for IC50: N2a-APPswe, read-out: IC50 in lowering Aβ42 production, N2A-APPswe cells, mean ± standard deviation, n ≥ 3
Source text: Sigma-Aldrich Chemical Co. unless otherwise specified. SSG (1) was purchased from Wako Pure Chemical Industries, Ltd. Diosgenin (6), Dioscin (9), Polyphyllin D (10), Timosaponin BI (22) and Timosaponin BII (23) were purchased from Chengdu Must Bio-Technology Co.
Ltd. Yamogenin (7) was bought from Ambinter c/o Greenpharma while Smilagenin (24) was bought from Steraloids Inc. Substances dissolved in DMSO as stock solutions. Cell culture medium constituents were purchased from Life Technologies, Inc.
Cell culture: Neuro-2A cells expressing Swedish mutants of APP (N2A-APPswe provided by Prof. Yifan Han, The Hong Kong Polytechnic University)1 was cultured in minimal essential medium with 2 mM glutamine, 2 mM pyruvate and 10% fetal bovine serum. […]
Aβ ELISA: Aβ concentrations in conditioned medium were assayed using ELISA kits for […]

[2] = Plasma and brain concentrations by LC-MS/MS; format: in vivo, mice; conditions: for Plasma Precursor: mice n = 6, three repeated oral doses 100 mg/kg in two days
Protocol: Animal experiments: Male C57BL/6N mice were housed in environmentally controlled room (temperature: 25 ± 2 °C, humidity: 50 ± 5%, 12-h light-dark cycle) in Laboratory Animal Unit, The University of Hong Kong and were freely access to food and water. TAIII, TAI SSG and compound 34 were dissolved in 5% Tween 80 and given to the mice by oral gavage at three repeated doses of 100 mg/kg in 48 hours. Mice were administrated with 5% Tween 80 (control group), TAIII, TAI SSG and 34. The experimental procedures were performed with the approval of Committee of Use of Live Animal for Teaching and Research of The University of Hong Kong. Blood (about 600-800 µL) was collected by cardiac puncture and added with 1/10 volume of Na2EDTA (20 mg/mL) to prevent coagulation. After centrifugation at 3000 g for 15 min at 4 °C, plasma was transferred to a centrifuge tube. The brain was dissected into two hemispheres on ice, weighed and frozen in liquid nitrogen immediately. The left brain was homogenized with 1 mL of buffer containing 5 M guanidine HCl, 50 mM Tris HCl, pH 8.0, with protease inhibitor cocktail and AEBSF using a Polytron and the homogenates were allowed to stand at room temperature for 3h. Both plasma and brain samples were stored at -80 °C until they were analyzed. […]
B. Determination of timosaponin levels in mice plasma and brain by ultra-high pressure liquid chromatography tandem mass spectrometry
The UPLC-ESI-QTOF consists of a Waters Q-TOF PremierTM mass spectrometer (Micromass MS Technologies, Manchester, UK) operated in positive ion mode and a Waters ACQUITY TM UPLC system. The mass spectrometer conditions were optimized as follows: source […]
temperature, 120 °C; desolvation temperature, 500 °C; nebulization gas flow rate, 1000 L/h; cone gas flow rate, 20 L/h; capillary voltage, 2.5 kV; sampling cone voltage, 28V. The data were collected into two separate data channels with the instrument spending 0.5 s on data acquisition for each channel and a 0.1 s inter-channel delay. The mass spectrometer was calibrated by using the solution of sodium formate (0.5 mM) and the TOF scan range was from 100 to 1000 Da. In order to improve mass measurement accuracy a lock mass compound (50 pg µL−1 solution of leucine encephalin; m/z 556.2771) was continuously infused at a 0.5 mL min-1 using the built-in syringe pump of the instrument.
Sample was loaded into a Waters ACQUITY TM BEH C18 column (100 × 2.1 mm i.d., 1.7 µM) connected to a Waters ACQUITY TM BEH C18 guard column (5 × 2.1 mm i.d., 1.7 µM). The gradient elution system consisted of 0.1% formic acid in water (A) and 0.1% formic acid in acetonitrile (B). Separation was achieved by using: 30%-55% B from 0 to 3 min; 55-100% B from 3 to 6 min; 100% B from 6 to 12 min and returned to initial conditions and equilibrated for 3 minutes. The flow rate was 0.3 mL/min and the injection volume was 5 µL.
Standard preparation and sample preparation
Stock solution (10 µM ) of each analyte was prepared by dissolving in methanol. They were subject to serial dilution to give calibration curves of SSG 1 (plasma: y = 8.7485× - 0.0676; […]
each concentration of each analyte was transferred to a centrifuge tube and evaporated to dryness by a concentrator. Dioscin (20 µL , 10 µM) was added as an internal standard followed by methanol (130 µL) and control plasma (50 µL). The mixture was vortexed for 5 s and centrifuged (15000 × g) for 15 min. The supernatant was collected and evaporated to dryness by a concentrator. Methanol (100 µL) was added and then vortexed again for 10 s and centrifuged (15000 × g) for 20 min. The supernatant (5 µL) was subject to LC-MS/MS analysis. Analyte-treated plasma, control brain and analyte-treated brain were prepared in a […]
The acquisition and processing of data were performed by Masslynx (version 4.1) software.
Mass window of ±10 mDa and mass resolution of 9000 were set for both molecular ions and product ions. MS full scan was applied to acquire high abundant molecular ions [M+H]+ with […]

[3] = any metabolite, mice n = 6, three oral doses 100 mg/kg in two days
[4] = mice n = 6, three oral doses 100 mg/kg in two days

Compound	decrease in Aβ42 ([1]; 50 μM) [%]	decrease in Aβ42 ([1]; 100 μM) [%]	IC50 [1] [µM]	Brain Metabolite [2, 3]	Plasma Metabolite [2, 3]	Brain Precursor [2, 4]	Plasma Precursor [2] [µM]	Aβ42-lowering effect (in words) [1]
C[C@H]1CC[C@@]2(OC1)O[C@H]1C[C@H]3[C@@H]4CC[C@@H]5C[C@@H](O)CC[C@]5(C)[C@H]4CC[C@]3(C)[C@H]1[C@@H]2C [SSG (1), sarsasapogenin]	55	40	53 ± 9	Not detected	Not detected	1.042 ± 0.418 µM	0.118 ± 0.062	
C[C@H]1CC[C@@]2(OC1)O[C@H]1C[C@H]3[C@@H]4CC[C@@H]5C[C@@H](O[C@@H]6O[C@H](CO)[C@H](O)[C@H](O)[C@H]6O)CC[C@]5(C)[C@H]4CC[C@]3(C)[C@H]1[C@@H]2C [TAI (3), timosaponin A I]			~6.1			1.174 ± 0.401 µM	3.361 ± 0.925	effectively lowered
C[C@H]1CC[C@@]2(OC1)O[C@H]1C[C@H]3[C@@H]4CC[C@@H]5C[C@@H](O[C@@H]6O[C@H](CO)[C@H](O)[C@H](O)[C@H]6O[C@@H]6O[C@H](CO)[C@@H](O)[C@H](O)[C@H]6O)CC[C@]5(C)[C@H]4CC[C@]3(C)[C@H]1[C@@H]2C [TAIII (2), timosaponin A III]			~2.3			Not detected	0.050 ± 0.058	effectively lowered

Reference: PMC6005341, “Identification of “sarsasapogenin-aglyconed” timosaponins as novel Aβ-lowering modulators of amyloid precursor protein processing” (Chemical Science, 2016)
